# Source: US20250163088A1, “HALF-SANDWICH TRANSITION METAL COMPLEXES AND USES THEREOF” (DEBRECENI EGYETEM, priority 2021, published 2025)
# Like-named read-outs stand apart in the source and are kept apart here.
# Experiments:
# [1] = test system: A2780 human ovarian carcinoma cells; assay: SRB proliferation assay (48 h) on A2780 cells; format: cell-based; settings: for cytostatic properties in the screen (long-term SRB and short-term MTT assays): A2780 cells, 100 μM-0.0017 μM
# Experimental: The compounds were tested in an assay aiming to assess short term toxicity (methylthiazolyldiphenyl-tetrazolium bromide (MTT) reduction assay, 4 hours) and a long term cytostasis or cytotoxicity (sulphorhodamine B (SRB) proliferation assay, 48 hours) on A2780 human ovarian carcinoma cells.
# (§1) SRB accumulation assay assesses protein content in a sample and was used to assess cell proliferation. SRB accumulation assay was performed similarly to (Fodor et al., 2016) as follows. Cells were seeded in 96-well plates. The next day cells were treated with the compounds for 48 hours in the concentrations indicated in a cell incubator. At the end of treatment cells were fixed with 10% trichloroacetic acid (TCA). Fixed cells were stained with SRB (0.4 m/V % dissolved in 1% acetic acid) for 60 minutes. Fixed cells were washed in 1% acetic acid 3 times; acetic acid was removed and cells were left to dry. Protein-bound SRB was released by adding 100 μl 10 mM Tris base. Plates were measured in a plate photometer (Thermo Scientific Multiscan GO spectrophotometer, Waltham, MA, USA) at 540 nm. On each plate wells were designed to contain untreated cells. In calculations the readings for these wells was considered as 1 and all readings were expressed relative to these values.
# Statistical analysis was performed using 8.0.1 version of Graphpad Prism. Values were tested for normal distribution using the D'Agostino and Pearson normality test. When necessary, values were log normalized or were normalized using the Box-Cox normalization method (Box and Cox, 1964), as indicated in the figure captions.
# [2] = test system: human primary skin fibroblasts; assay: SRB proliferation assay (48 h) on primary fibroblasts; format: cell-based; settings: for Fibroblast Hill slope / IC50: SRB 48 h, N/A = cannot be calculated/no effect; for IC50: read-out: Fibroblast IC50
# Experimental: (§2) […]. All compounds were tested on two ovarian cancer cell lines (A2780 and ID8) and on human primary skin fibroblasts (non-transformed, primary cells) in MTT and SRB assays. MTT assays were performed 4 hours post-treatment and indicated rapid toxicity of the compounds, while SRB assays were performed 2 days post-treatment and represent long term cytostasis or toxicity.
# as §1
# (§3) Statistical analysis was performed using 8.0.1 version of Graphpad Prism. Values were tested for normal distribution using the D'Agostino and Pearson normality test. When necessary, values were log normalized or were normalized using the Box-Cox normalization method (Box and Cox, 1964), as indicated in the figure captions. Nonlinear regression was performed using the built-in “[Inhibitor] vs. response—Variable slope (four parameters), least square fit” utility of Graphpad that yielded IC50 and Hill slope values.
# [3] = Solubility / precipitation in the test medium; format: physicochemical
# [4] = test system: cisplatin-resistant A2780 cell line; assay: SRB proliferation assay (48 h) on cisplatin-resistant A2780 cells; format: cell-based, human
# Experimental: In this experiment, 6×10^3 cisplatin-resistant A2780 cells were plated to 96 well plates. Cells were treated with the compounds in the concentrations indicated for either 4 hours for an MTT assay or for 48 hours for an SRB assay. Data is represented as average ±SD, from three biological replicates; individual assays were performed in duplicates. Values were normalized for vehicle treated cells, absorbance for vehicle treated cells equals to 1. Each compound was assessed individually. Normality was assessed using the Shapiro-Wilk test. […] Statistical significance was assessed using One-way ANOVA test comparing all points to the smallest concentration. Nonlinear regression was performed on the results of the SRB assay datasets.
# Cisplatin resistant cells underwent selection (1 μM cisplatin) once a week for 3 days before plating for any assay.
# as §1
# ID8 ovarian cancer cells = assay: SRB proliferation assay (48 h) on ID8 cells; format: cell-based; settings: SRB 48 h; for IC50: N/A = cannot be calculated/no effect
# Experimental: as §2, §1, §3
# [5] = SRB 48 h, nonlinear regression, N/A = cannot be calculated/no effect, read-out: A2780 IC50
molecule,measurement,setting,value
"2-(2′,3′,4′,6′-Tetra-O-benzoyl-β-D-glucopyranosyl)-5-(pyridin-2-yl)-1,3,4-oxadiazole [Complex L-4]",A2780 SRB Max. (maximal inhibition),[1]; 48 h,26.9%
"O=C(OC[C@H]1O[C@@H](n2cc(-c3ccccn3)nn2)[C@H](OC(=O)c2ccccc2)[C@@H](OC(=O)c2ccccc2)[C@@H]1OC(=O)c1ccccc1)c1ccccc1 [Complex L-2a, 1-(2′,3′,4′,6′-Tetra-O-benzoyl-β-D-glucopyranosyl)-4-(pyridin-2-yl)-1,2,3-triazole]","effect on primary human fibroblasts (SRB), in words",[2],no effect
same,"cytostatic effect in long-term SRB assays on A2780 and ID8 cells, in words",[1]; 48 h,"none of the corresponding ligands (L-2a, L-4, L-6, L-8) had cytostatic properties"
same,cytostatic properties in the screen (long-term SRB and short-term MTT assays),[1],no biological activity
"O=C(OC[C@H]1O[C@@H](n2cc(-c3ccc4ccccc4n3)nn2)[C@H](OC(=O)c2ccccc2)[C@@H](OC(=O)c2ccccc2)[C@@H]1OC(=O)c1ccccc1)c1ccccc1 [Complex L-2b, 1-(2′,3′,4′,6′-Tetra-O-benzoyl-β-D-glucopyranosyl)-4-(quinolin-2-yl)-1,2,3-triazole]","cytostatic effect in long-term SRB assays on A2780 and ID8 cells, in words",[1]; 48 h,only little cytostatic activity
"O=C(OC[C@H]1O[C@@H](c2nnc(-c3ccccn3)o2)[C@H](OC(=O)c2ccccc2)[C@@H](OC(=O)c2ccccc2)[C@@H]1OC(=O)c1ccccc1)c1ccccc1 [Complex L-4, 2-(2′,3′,4′,6′-Tetra-O-benzoyl-β-D-glucopyranosyl)-5-(pyridin-2-yl)-1,3,4-oxadiazole]","effect on primary human fibroblasts (SRB), in words",[2],no effect
same,"cytostatic effect in long-term SRB assays on A2780 and ID8 cells, in words",[1]; 48 h,"none of the corresponding ligands (L-2a, L-4, L-6, L-8) had cytostatic properties"
same,cytostatic properties in the screen (long-term SRB and short-term MTT assays),[1],no biological activity
"CC(=O)OC[C@H]1O[C@@H](c2nnc(-c3ccccn3)o2)[C@H](OC(C)=O)[C@@H](OC(C)=O)[C@@H]1OC(C)=O [Complex L-5, 2-(2′,3′,4′,6′-Tetra-O-acetyl-β-D-glucopyranosyl)-5-(pyridin-2-yl)-1,3,4-oxadiazole]",A2780 SRB Max. (maximal inhibition),[1]; 48 h,28.5%
"O=C(O[C@@H]1[C@@H](OC(=O)c2ccccc2)[C@H](c2nnc(-c3ccccn3)o2)OC[C@H]1OC(=O)c1ccccc1)c1ccccc1 [Complex L-6, 2-(2′,3′,4′-Tri-O-benzoyl-β-D-xylopyranosyl)-5-(pyridin-2-yl)-1,3,4-oxadiazole]","effect on primary human fibroblasts (SRB), in words",[2],no effect
same,"cytostatic effect in long-term SRB assays on A2780 and ID8 cells, in words",[1]; 48 h,"none of the corresponding ligands (L-2a, L-4, L-6, L-8) had cytostatic properties"
same,cytostatic properties in the screen (long-term SRB and short-term MTT assays),[1],no biological activity
same,solubility of the free ligand for testing,[3],insoluble
"O=C(OC[C@H]1O[C@@H](c2nnc(-c3ccccn3)o2)[C@H](OC(=O)c2ccccc2)[C@@H](OC(=O)c2ccccc2)[C@H]1OC(=O)c1ccccc1)c1ccccc1 [Complex L-8, 2-(2′,3′,4′,6′-Tetra-O-benzoyl-β-D-galactopyranosyl)-5-(pyridin-2-yl)-1,3,4-oxadiazole]","effect on primary human fibroblasts (SRB), in words",[2],no effect
same,"cytostatic effect in long-term SRB assays on A2780 and ID8 cells, in words",[1]; 48 h,"none of the corresponding ligands (L-2a, L-4, L-6, L-8) had cytostatic properties"
same,cytostatic properties in the screen (long-term SRB and short-term MTT assays),[1],no biological activity
"c1ccc(-n2cc(-c3ccccn3)nn2)cc1 [Complex L-13, 1-phenyl-4-(pyridine-2-yl)-1,2,3-triazole]","cytostatic activity on A2780 cells in SRB assays, in words",[1]; 48 h,"None of the free ligands, L-13 or L-14 had cytostatic activity"
"c1ccc(-c2nnc(-c3ccccn3)o2)cc1 [Complex L-14, 2-phenyl-5-(pyridine-2-yl)-1,3,4-oxadiazole]","cytostatic activity on A2780 cells in SRB assays, in words",[1]; 48 h,"None of the free ligands, L-13 or L-14 had cytostatic activity"
"CCCCCCCC(=O)OC[C@H]1O[C@@H](n2cc(-c3ccccn3)nn2)[C@H](OC(=O)CCCCCCC)[C@@H](OC(=O)CCCCCCC)[C@@H]1OC(=O)CCCCCCC [L-C7, 1-(2′,3′,4′,6′-Tetra-O-octanoyl-β-D-glucopyranosyl)-4-(pyridin-2-yl)-1,2,3-triazole]",solubility of the free ligand for testing,[3],insoluble
"CNCc1ccc(-c2[nH]c3cc(F)cc4c3c2CCNC4=O)cc1 [Rucaparib, rucaparib]","cell proliferation, rucaparib alone","[1]; 3 μM, SRB 48 h",reduced cell proliferation
[NH2][Pt]1([NH2])[O]C(=O)C2(CCC2)C(=O)[O]1 [carboplatin],"effect on primary human fibroblasts (SRB), in words",[2]; 48 h,no effect
N.N.[Cl][Pt][Cl] [cisplatin],Fibroblast Hill slope,[2],1.53
same,IC50,[2],11900 nM
same,A2780 SRB Hill,[1]; 48 h,1.20
same,IC50,"[1]; 48 h, read-out: A2780 SRB IC50",1210 nM
same,A2780 Hill slope,"[1]; SRB 48 h, nonlinear regression",1.20
same,IC50,[1]; [5],1210 nM
same,IC50,"[1]; SRB assay, 48 h, read-out: IC50 value on (cisplatin-sensitive) A2780 cells",1210 nM
same,cisplatin resistant A2780 SRB Max. (maximal inhibition),[4]; 48 h,100%
same,"fold change of IC50, cisplatin resistant vs. cisplatin sensitive A2780",[4]; SRB assay,13.6 fold
same,IC50,"[4]; SRB assay, 48 h",16500 nM
same,ID8 Hill slope,ID8 ovarian cancer cells,0.99
same,IC50,ID8 ovarian cancer cells,10800 nM
O=C1[O][Pt]2([NH][C@@H]3CCCC[C@H]3[NH]2)[O]C1=O [oxaliplatin],"effect on primary human fibroblasts (SRB), in words",[2]; 48 h,no effect
same,Fibroblast Hill slope,[2],0.37
same,IC50,[2],830 nM
same,A2780 Hill slope,"[1]; SRB 48 h, nonlinear regression",1.27
same,IC50,[1]; [5],120 nM
same,ID8 Hill slope,ID8 ovarian cancer cells,1.58
same,IC50,ID8 ovarian cancer cells,4590 nM
